Data taken from patent US8178559B2, “Organic compounds” (Novartis AG, priority 2004, dated 2012).

Biological target: T1, renin (Homo sapiens, UniProt P00797)
T1 construct: made in house; host or cells: Chinese Hamster Ovary cells
T1 sequence (P00797 67-406): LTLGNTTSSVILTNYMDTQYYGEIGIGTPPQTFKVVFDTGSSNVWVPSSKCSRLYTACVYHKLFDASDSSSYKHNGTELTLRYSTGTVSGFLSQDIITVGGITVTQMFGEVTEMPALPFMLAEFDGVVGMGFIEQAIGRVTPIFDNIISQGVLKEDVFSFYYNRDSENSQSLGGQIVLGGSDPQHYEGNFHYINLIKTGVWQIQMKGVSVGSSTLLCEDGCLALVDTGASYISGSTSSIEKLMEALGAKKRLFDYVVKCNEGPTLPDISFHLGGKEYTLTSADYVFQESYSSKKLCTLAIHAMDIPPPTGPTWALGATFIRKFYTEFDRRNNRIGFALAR
Test: renin enzyme assay (which of the described assay systems is not specified)
Format: biochemical
Conditions: in the several assay system as described above
Protocol: Recombinant human renin (expressed in Chinese Hamster Ovary cells and purified using standard methods) at 7.5 nM concentration is incubated with test compound at various concentrations for 1 h at RT in 0.1 M Tris-HCl buffer, pH 7.4, containing 0.05 M NaCl, 0.5 mM EDTA and 0.05% CHAPS. Synthetic peptide substrate Arg-Glu(EDANS)-Ile-His-Pro-Phe-His-Leu-Val-Ile_His_Thr-Lys(DABCYL)-Arg9 is added to a final concentration of 2 μM and increase in fluorescence is recorded at an excitation wave-length of 350 nm and at an emission wave-length of 500 nm in a microplate spectro-fluorimeter. IC50 values are calculated from percentage of inhibition of renin activity as a function of test compound concentration (Fluorescence Resonance Energy Transfer, FRET, assay).
Alternatively, recombinant human renin (expressed in Chinese Hamster Ovary cells and purified using standard methods) at 0.5 nM concentration is incubated with test compound at various concentrations for 2 h at 37° C. in 0.1 M Tris-HCl buffer, pH 7.4, containing 0.05 M NaCl, 0.5 mM EDTA and 0.05% CHAPS. Synthetic peptide substrate Arg-Glu(EDANS)-Ile-His-Pro-Phe-His-Leu-Val-Ile_His_Thr-Lys(DABCYL)-Arg9 is added to a final concentration of 4 μM and increase in fluorescence is recorded at an excitation wave-length of 340 nm and at an emission wave-length of 485 nm in a microplate spectro-fluorimeter. […]

Cc1cccc(CN(C(=O)[C@H]2CNCC[C@@H]2c2cccc(-c3ccccc3)c2)C2CC2)c1C [Example 75]
inhibitory activity compared with the active enantiomer of Example 8: same inhibitory activity to an active enantiomer of Example 8
